Measured values as given in patent publication US20250353835A1, “N-TETRAZOLYL ARYL UREA-BASED DERIVATIVES, PREPARATION METHOD THEREFOR, AND USE THEREOF” (Hangzhou Yirui Pharmaceutical Technology Co., Ltd, priority 2022, published 2025).

Target: T1, human B1R (Homo sapiens, UniProt P46663)
T1 construct: host or cells: HEK293
T1 sequence (P46663 1-353): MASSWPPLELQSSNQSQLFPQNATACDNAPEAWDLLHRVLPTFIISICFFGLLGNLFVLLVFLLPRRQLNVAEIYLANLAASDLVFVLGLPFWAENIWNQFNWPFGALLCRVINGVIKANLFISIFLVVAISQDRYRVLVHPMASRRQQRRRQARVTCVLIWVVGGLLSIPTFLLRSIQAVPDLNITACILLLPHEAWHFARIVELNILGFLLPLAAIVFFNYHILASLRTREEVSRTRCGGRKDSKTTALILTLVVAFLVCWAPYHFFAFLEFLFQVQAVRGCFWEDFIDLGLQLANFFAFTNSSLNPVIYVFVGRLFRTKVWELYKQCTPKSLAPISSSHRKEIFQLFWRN
Assay: FLIPR calcium ion flux assay, inhibitory activity against human B1R
Assay type: cell-based
Conditions: HEK293 cells stably expressing human B1R; agonist [Lys-des-Arg9]-Bradykinin 4.6 nM (EC80); FLIPR method
Experimental: The inhibitory activity of the compounds against human B1R and B2R channels was determined by calcium ion flux assay using fluorometric imaging plate reader (FLIPR method). See literatures of Lee, Chen et al. for the method. [Lee et al. 2008][Chen et al. 2011]
1. Cell culture: HEK293 recombinant cell lines (WuXi AppTec, Shanghai, China) stably expressing human B1R and B2R were cultured in DMEM (Invitrogen, Cat #11965) medium containing 10% calf serum (Excellbio, Cat #FSP500), 5 μg/ml Geneticin (Invitrogen, Cat #10131) and Penicillin/Streptomycin (Invitrogen, Cat #15140). The incubator conditions were 37° C. and ambient humidity containing 5% CO2.
2. Preparation of the cell assay plate: B1R and B2R cells were seeded in a 384-well assay plate (Greiner, Cat #781090) at a density of 20,000 cells per well (20 μl/well), and cultured overnight at 37° C. in an incubator with 5% CO2. The next day, Fluo-4 Direct™ Loading Buffer (containing 5 mM Probenicid) containing 2× (8 μM) Fluo-4 Direct (Invitrogen, Cat #F10471) was added to each of the wells. The cells were cultured at 37° C. for 50 min, and then culture for at the room temperature 10 min.
3. Preparation of the compound assay plate: The compound was dissolved in 100% DMSO to make a 30 mM stock solution and stored at −20° C. On the day of use, the stock solution of the compound was thawed at the room temperature. Each of the compounds was serially diluted at 1:5 in DMSO culture medium with a starting concentration of 30 μM for 9 concentration points on a 384-well plate. Each of compounds was diluted in duplicate for testing. [Des-Arg10]-HOE140 was used as a positive control compound, and diluted in the same manner with a starting concentration of 3 μM.
4. FLIPR assay: The cell assay plate was placed in a FLIPR instrument ([…]). The compounds in the compound assay plate were added to the corresponding wells on the cell assay plate (10 μL/well) using an automatic program. The calcium ion fluorescence signal was recorded to determine whether the compound may have agonist activity. After 10 minutes, a B1R agonist [Lys-des-Arg9]-Bradykinin2 (10 μL/well) with a final concentration of 4.6 nM (EC80) was added to each of the wells to stimulate the generation of intracellular calcium ion flux signals. The Ca^++-dependent fluorescence signal was continuously monitored at a wavelength of 538 nm to analyze the inhibitory activity of the compound.
5. Data analysis: The data was collected and analyzed by a FLIPR program. The inhibitory (or agonist) activity of the compound at each concentration was evaluated by the fluorescence peak. The IC50 values of the compounds were calculated using EXCEL and PRISM programs.

Structure (SMILES) | IC50
CC(C)(C)C1CCN(C(=O)Nc2ccc(-c3ccc4c(c3)OCO4)c(-c3nn[nH]n3)c2)CC1 [Compound 39, N-(4-(benzo[d][1,3]dioxolan-5-yl)-3-(2H-tetrazol-5-yl)phenyl)-4-(tert-butyl)piperidine-1-carboxamide] | 82.4 nM
CC(C)(C)C1CCN(C(=O)Nc2ccc(C(=O)OC3CCCCC3)c(-c3nn[nH]n3)c2)CC1 [Compound 15, cyclohexyl 4-(4-(tert-butyl)piperidine-1-formamido)-2-(2H-tetrazol-5-yl)benzoate] | 39.8 nM
CC(C)(C)C1CCN(C(=O)Nc2cc(F)c(C(=O)OC3CCCCC3)c(-c3nn[nH]n3)c2)CC1 [Compound 17, cyclohexyl 4-(4-(tert-butyl)piperidine-1-formamido)-2-fluoro-6-(2H-tetrazol-5-yl)benzoate] | 29.6 nM
CCOC(=O)c1ncc(NC(=O)N2CCC(C(C)(C)C)CC2)cc1-c1nn[nH]n1 [Compound 37, ethyl 5-(4-(tert-butyl)piperidine-1-formamido)-3-(2H-tetrazol-5-yl)pyridylcarboxylate] | 72.7 nM
Cn1ncc2cc(-c3c(F)cc(NC(=O)N4CCC(C(C)(C)C)CC4)cc3-c3nn[nH]n3)ccc21 [Compound 32, 4-(tert-butyl)-N-(3-fluoro-4-(1-methyl-1H-indazol-5-yl)-5-(2H-tetrazol-5-yl)phenyl)piperidine-1-carboxamide] | 14.2 nM
CC(C)(C)C1CCN(C(=O)Nc2ccc(-c3cnn(C4CCC4)c3)c(-c3nn[nH]n3)c2)CC1 [Compound 9, 4-(tert-butyl)-N-(4-(1-cyclobutyl-1H-pyrazol-4-yl)-3-(2H-tetrazol-5-yl)phenyl) piperidine-1-carboxamide] | 45.9 nM
COc1ccc(-c2ccc(NC(=O)N3CCC(C(C)(C)C)CC3)cc2-c2nn[nH]n2)cc1Cl [Compound 14, 4-(tert-butyl)-N-(3′-chloro-4′-methoxy-2-(2H-tetrazol-5-yl)-[1,1′-biphenyl]-4-yl)piperidine-1-carboxamide] | 23.5 nM
CC(C)(C)C1CCN(C(=O)Nc2cnc(C(=O)OC3CCCCC3)c(-c3nn[nH]n3)c2)CC1 [Compound 38, cyclohexyl 5-(4-(tert-butyl)piperidine-1-formamido)-3-(2H-tetrazol-5-yl)pyridylcarboxylate] | 83.7 nM
Cn1ncc2cc(-c3ncc(NC(=O)N4CCC(C(C)(C)C)CC4)cc3-c3nn[nH]n3)ccc21 [Compound 36, 4-(tert-butyl)-N-(6-(1-methyl-1H-indazol-5-yl)-5-(2H-tetrazol-5-yl)pyrid-3-yl)piperidine-1-carboxamide] | 48.3 nM
CC(C)(C)C1CCN(C(=O)Nc2cc(F)c(-c3ccc(C(F)(F)F)nc3)c(-c3nn[nH]n3)c2)CC1 [Compound 18, 4-(tert-butyl)-N-(3-fluoro-5-(2H-tetrazol-5-yl)-4-(6-(trifluoromethyl)pyrid-3-yl)phenyl)piperidine-1-carboxamide] | 9.9 nM
CCOc1ccc(-c2ccc(NC(=O)N3CCC(C)CC3)cc2-c2nn[nH]n2)cn1 [Compound 5, N-(4-(6-ethoxypyrid-3-yl)-3-(2H-tetrazol-5-yl)phenyl)-4-methylpiperidine-1-carboxamide] | 162 nM
CC1CCN(C(=O)Nc2ccc(-c3ccc4c(cnn4C)c3)c(-c3nn[nH]n3)c2)CC1 [Compound 21, 4-methyl-N-(4-(1-methyl-1H-indazol-5-yl)-3-(2H-tetrazol-5-yl)phenyl)piperidine-1-carboxamide] | 21.1 nM

Second part, the compound after the results:

IC50 | Structure (SMILES)
12000 nM | C[C@H]1CC[C@@H](NC(=O)Nc2ccc(OC3CCOCC3)c(-c3nn[nH]n3)c2)CC1 [Compound 72]
13300 nM | C[C@H]1CC[C@@H](NC(=O)Nc2ccc(C3CCOCC3)c(-c3nn[nH]n3)c2)CC1 [Compound 67, 1-((cis)-4-methylcyclohexyl)-3-(4-(tetrahydro-2H-pyran-4-yl)-3-(2H-tetrazol-5-yl)phenyl)urea]
9900 nM | COc1ccc(Oc2ccc(NC(=O)N[C@H]3CC[C@H](C)CC3)cc2-c2nn[nH]n2)cc1OC [Compound 64, 1-(4-(3,4-dimethoxyphenoxy)-3-(2H-tetrazol-5-yl)phenyl)-3-((trans)-4-methylcyclohexyl)urea]
448 nM | CC(C)(C)C1CCN(C(=O)Nc2ccc(C3C=COCC3)c(-c3nn[nH]n3)c2)CC1 (stereo not shown) [Compound 41, 4-(tert-butyl)-N-(4-(3,4-dihydro-2H-pyran-4-yl)-3-(2H-tetrazol-5-yl)phenyl)piperidine-1-carboxamide]
1650 nM | C[C@H]1CC[C@H](NC(=O)Nc2ccc(C3=CCOCC3)c(-c3nn[nH]n3)c2)CC1 [Compound 66, 1-(4-(3,6-dihydro-2H-pyran-4-yl)-3-(2H-tetrazol-5-yl)phenyl)-3-((trans)-4-methylcyclohexyl)urea]
13700 nM | C[C@H]1CC[C@H](NC(=O)Nc2ccc(OC3CCOCC3)c(-c3nn[nH]n3)c2)CC1 [Compound 73]
247 nM | COc1ccc(-c2ccc(NC(=O)Nc3ccc(C(F)(F)F)cc3)cc2-c2nn[nH]n2)cc1OC [Compound 60, 1-(3′,4′-dimethoxy-2-(2H-tetrazol-5-yl)-[1,1′-biphenyl]-4-yl)-3-(4-(trifluoromethyl)phenyl)urea]
35.4 nM | COc1ccc(-c2ccc(NC(=O)NC3CCC(C(C)(C)C)CC3)cc2-c2nn[nH]n2)cc1OC (stereo not shown) [Compound 59, 1-(4-(tert-butyl)cyclohexyl)-3-(3′,4′-dimethoxy-2-(2H-tetrazol-5-yl)-[1,1′-biphenyl]-4-yl)urea]
9.6 nM | CC(C)Oc1ccc(-c2ccc(NC(=O)N3CCC(C(C)(C)C)CC3)cc2-c2nn[nH]n2)cn1 [Compound 49, 4-(tert-butyl)-N-(4-(6-isopropoxypyrid-3-yl)-3-(2H-tetrazol-5-yl)phenyl)piperidine-1-carboxamide]
103 nM | CCOC(=O)c1ccc(NC(=O)N2CCC(C(C)(C)C)CC2)cc1-c1nn[nH]n1 [Compound 45, ethyl 4-(4-(tert-butyl)piperidine-1-formamido)-2-(2H-tetrazol-5-yl)benzoate]
8.9 nM | Cc1ccc(-c2c(F)cc(NC(=O)N3CCC(C(C)(C)C)CC3)cc2-c2nn[nH]n2)cn1 [Compound 55, 4-(tert-butyl)-N-(3-fluoro-4-(6-methylpyrid-3-yl)-5-(2H-tetrazol-5-yl)phenyl)piperidine-1-carboxamide]
7490 nM | C[C@H]1CC[C@H](NC(=O)Nc2ccc(C3CCOCC3)c(-c3nn[nH]n3)c2)CC1 [Compound 68, 1-((trans)-4-methylcyclohexyl)-3-(4-(tetrahydro-2H-pyran-4-yl)-3-(2H-tetrazol-5-yl)phenyl)urea]
60.2 nM | COc1ccc(-c2ccc(NC(=O)N[C@H]3CC[C@H](C)CC3)cc2-c2nn[nH]n2)cc1OC [Compound 62, 1-(3′,4′-dimethoxy-2-(2H-tetrazol-5-yl)-[1,1′-biphenyl]-4-yl)-3-((trans)-4-methylcyclohexyl)urea]
54.8 nM | COc1cncc(-c2c(F)cc(NC(=O)N3CCC(C(C)(C)C)CC3)cc2-c2nn[nH]n2)c1 [Compound 50, 4-(tert-butyl)-N-(3-fluoro-4-(5-methoxypyrid-3-yl)-5-(2H-tetrazol-5-yl)phenyl) piperidine-1-carboxamide]
74.6 nM | CC(C)(C)C1CCN(C(=O)Nc2ccc(C(=O)NC3CCCC3)c(-c3nn[nH]n3)c2)CC1 [Compound 46, 4-(tert-butyl)-N-(4-(cyclopentylaminoformyl)-3-(2H-tetrazol-5-yl)phenyl)piperidine-1-carboxamide]
8.6 nM | CC(C)(C)c1cn(-c2ccc(NC(=O)N3CCC(C(C)(C)C)CC3)cc2-c2nn[nH]n2)cn1 [Compound 58, 4-(tert-butyl)-N-(4-(4-(tert-butyl)-1H-imidazol-1-yl)-3-(2H-tetrazol-5-yl)phenyl)piperidine-1-carboxamide]
